{
  "source": "patent US12527849B2",
  "about": "“Apparatus for determining administration form of a composition of an engineered virus-based nanoparticle for a treatment of an autoimmune condition” (Diamante Srl, priority 2021, dated 2026)",
  "key": {"CD25+ Foxp3+ cells": {"system": "CD25+ Foxp3+ cells", "test": "Percentage of CD25+ Foxp3+ cells in lymph nodes of CIA mice", "assay_type": "in vivo", "settings": "day 60 after immunization, i.p. treatment, mean (SEM), n=3", "source_text": "With continued reference to FIG. 1, in some embodiments, administration 116 may be done to an animal. As a non-limiting example, the animal may include a mouse, a fish, a rabbit, human, and the like. As a non-limiting example, administration 116 of composition of the engineered virus-based nanoparticle for a treatment of an autoimmune condition may be done to dilute, brown, and non-agouti (DBA) mice based on their susceptibility to collagen-induced arthritis (CIA). Female DBA/1 mice 6 to 8 weeks of age may be maintained under specific pathogen-free conditions. CIA may be induced by the intradermal tail base injection of 100 μg of chicken type II collagen (Sigma-Aldrich) as previously described. […] CIA may be assessed using a macroscopic score system based on the visual identification of arthritic limbs. The clinical severity of arthritis may be evaluated as follows: Each mouse may be inspected every 2 to 3 days for three different parameters: (i) swelling of the hind ankle and foot, measured with calipers; (ii) erythema of each leg; and (iii) swelling of the fingers. The RA index for each mouse was expressed as the mean of the three scores from the individual parameters. At the end of the experiment (60 days), we determined the proportion of CD25+Foxp3+ cells in the lymph nodes and measured cytokine titers in the lymph nodes, joints, and serum. […]"}, "IL-12p70": {"system": "IL-12p70", "test": "Pro-inflammatory cytokines in sera of CIA Collagen mice (ELISA, day 58): IL-12p70", "assay_type": "in vivo", "settings": "Dexamethasone oral 1 mg/kg, 20 times between day 28 and 57", "method": "Critical administration 124 disclosed herein is further described below. Q5D represents administration 5 days a part. TBSV·pLIp1 and wt TBSV shown in Table 1 may include liquid form that are not sterile and stored in −20° C. TBSV·pLIp1 may be given at the dose of 50 μG/100 μL Male DBA/1J mice (8 weeks; Envigo, Italy) may be used for these studies. Mice may be housed in individual cages (two for each group) and maintained under a 12:12 light-dark cycle at 21° C.±1° C. and 50%±5% humidity. The animals may be acclimated to their environment for 1 week and had ad libitum access to tap water and standard rodent diet. All animal experiments may be complied with regulations in Italy (D.M. 116192), Europe (O.J of E.C. L 358/112/18/1986), and the United States (Animal Welfare Assurance Number A5594-01, Department of Health and Human Services, USA). […] Arthritis was assessed by using qualitative severity score system and hind paw volume (mL) measured by a plethysmometer on day 20, 22, 24, 26, 28, 30, 32, 34, 36, 38, 40, 42, 44, 46 48, 50, 52, 54, 56 and 58. Body weight was recorded on day 0, 6, 13, 16, 18, 20, 22, 24, 26, 28, 30, 32, 34, 36, 38, 40, 42, 44, 46, 50, 52, 54, 56 and 58. […]"}},
  "data": [
    {"molecule": "C[C@@H]1C[C@H]2[C@@H]3CCC4=CC(=O)C=C[C@]4(C)[C@@]3(F)[C@@H](O)C[C@]2(C)[C@@]1(O)C(=O)CO", "note": "[Dexamethasone, dexamethasone]", "values": [
      {"measurement": "% CD25^+/Foxp3^+", "setting": "CD25+ Foxp3+ cells", "value": "3.26 (0.84) %"},
      {"measurement": "IL-12p70, % of reduction vs CIA Collagen", "setting": "IL-12p70", "value": 37.95, "unit": "%"}
    ]}
  ]
}
